Data reported in patent US6444666B1, “Triazolopyridazine Derivatives for treating anxiety and enhancing cognition” (Merck Sharp & Dohme Ltd., priority 1997, dated 2002).

Row | melting point | SMILES
1 | 264 °C | Cn1ncnc1COc1nn2c(-c3cnccn3)nnc2cc1-c1ccccc1 [Example 2, 6-(2-Methyl-2H-1,2,4-triazol-3-ylmethoxy)-7-phenyl-3-(pyrazin-2-yl)-1,2,4-triazolo[4,3-b]pyridazine]
2 | 255 °C | c1ccc(-c2cc3nnc(-c4cnccn4)n3nc2OCc2nc[nH]n2)cc1 [Example 3, 7-Phenyl-3-(pyrazin-2-yl)-6-(1H-1,2,4-triazol-3-ylmethoxy)-1,2,4-triazolo[4,3-b]pyridazine]
3 | 221 to 223 °C | Cc1cc(-c2nnc3cc(C(C)(C)C)c(OCc4ncn(C)n4)nn23)no1 [Example 6, 7-t-Butyl-3-(5-methylisoxazol-3-yl)-6-(1-methyl-1.2 4-triazol-3-yl)methyloxy-1,2,4-triazolo[4,3-b]pyridazine]
4 | 219 to 221 °C | Cc1cc(-c2nnc3cc(C(C)(C)C)c(OCc4cn(C)nn4)nn23)no1 [Example 7, 7-t-Butyl-3-(5-methylisoxazol-3-yl)-6-(1-methyl-1.2.3-triazol-4-yl)methyloxy-1,2,4-triazolo[4,3-b]pyridazine]
